# Measured values reported in patent US6172074A, “Imidazopyridines and oxazolopyridines” (Byk Gulden Lomberg Chemische Fabrik GmbH, priority 1996, dated 2001).
# Where a name gives a salt, the structure may show the parent alone.
# System: PDE4
# Test: Inhibition of the PDE4 activity (Bauer and Schwabe method, adapted to microtiter plates)
# Assay type: biochemical
# Conditions: inhibitory concentration as -log IC50 (mol/l)
row,Compound,-log IC50
1,"COc1ccc(-c2nc3ncccc3o2)c2c1OC1(CCCC1)C2 [Compound 1, 2-(2,3-Dihydro-7-methoxybenzofuran-2-spiro-1'-cyclopentan-4-yl)oxazolo[4,5-b]pyridine]",7.93
2,"COc1ccc(-c2nc3cccnc3o2)c2c1OC1(CCCC1)C2 [Compound 2, 2-(2,3-Dihydro-7-methoxybenzofuran-2-spiro-1'-cyclopentan-4-yl)oxazolo[5,4-b]pyridine]",6.61
3,"COc1ccc(-c2nc3cnccc3o2)c2c1OC1(CCCC1)C2 [Compound 3, 2-(2,3-Dihydro-7-methoxybenzofuran-2-spiro-1'-cyclopentan-4-yl)oxazolo[4,5-c]pyridine]",8.76
4,"COc1ccc(-c2nc3cnccc3[nH]2)c2c1OC1(CCCC1)C2 [Compound 4, 2-(2,3-Dihydro-7-methoxybenzofuran-2-spiro-1'-cyclopentan-4-yl)imidazolo[4,5-c]pyridin]",8.08
5,"COc1ccc(-c2nc3cnccc3[nH]2)c2c1OC1(CCCCC1)C2 [Compound 5, 2-(2,3-Dihydro-7-methoxybenzofuran-2-spiro-1'-cyclohexan-4-yl)imidazolo[4,5-c]pyridine]",7.52
6,"COc1ccc(-c2nc3ncccc3[nH]2)c2c1OC1(CCCCC1)C2 [Compound 6, 2-(2,3-Dihydro-7-methoxybenzofuran-2-spiro-1'-cyclohexan-4-yl)imidazo[4,5-b]pyridine dihydrochloride hemihydrate]",6.90
7,"COc1ccc(-c2nc3c(Cl)nccc3[nH]2)c2c1OC1(CCCC1)C2 [Compound 7, 4-Chloro-2-(2,3-dihydro-7-methoxybenzofuran-2-spiro-1'-cyclopentan-4-yl)imidazo[4,5-c]pyridine]",7.98
